Biological target: KRas (Homo sapiens, UniProt P01116, G12C)
Experiment: KRas degradation in NCI-H2030 cells by Western blot, normalized to GAPDH (data of Table 14)
Format: cell-based
Set-up: host or cells: NCI-H2030
Details: for Percent Degradation at Indicated Concentration (μM): H2030; for Dmax: NCI-H2030
In short: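 After overnight adherence and 24 h without FBS, compounds added at 0.3, 1 or 3 μM (0.1% DMSO) for 24 h (VHL-based) or 72 h (others). Western blot of RIPA lysates, KRas signal over GAPDH relative to DMSO; DC50 and DMax derived, or <25% scored visually.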

Row | SMILES | Percent Degradation at Indicated Concentration (μM) (0.3 μM) | Percent Degradation at Indicated Concentration (μM) (1 μM) | Percent Degradation at Indicated Concentration (μM) (3 μM) | Dmax | Percent Degradation at Indicated Concentration (μM): 0.3 (H2030 cells, 0.3 μM) | Percent Degradation at Indicated Concentration (μM): 1 (H2030 cells, 1 μM) | Percent Degradation at Indicated Concentration (μM): 3 (H2030 cells, 3 μM) | Dmax (H2030 cells)
1 | O=C1CCC(N2C(=O)c3ccc(OCCOCCOCCOCC/C=C/C(=O)N4CCN(c5ncnc6c(F)c(-c7cc(O)cc8ccccc78)c(Cl)cc56)CC4)cc3C2=O)C(=O)N1 (centres unmarked) [compound 170, (E)-5-(2-(2-(2-((5-(4-(6-chloro-8-fluoro-7-(3-hydroxynaphthalen-1-yl)quinazolin-4-yl)piperazin-1-yl)-5-oxopent-3-en-1-yl)oxy)ethoxy)ethoxy)ethoxy)-2-(2,6-dioxopiperidin-3-yl)isoindoline-1,3-dione] | C (Percent Degradation: C ≤ 35) | C (Percent Degradation: C ≤ 35) | C (Percent Degradation: C ≤ 35) | ≤ 35% | – | – | – | –
2 | CCC(=O)N1CCN(c2nc(NCCC(=O)N(C)CCOc3ccc4c(c3)C(=O)N(C3CCC(=O)NC3=O)C4=O)nc3c(F)c(-c4cc(O)cc5ccccc45)c(Cl)cc23)CC1 (centres unmarked) [compound 46, 3-((6-chloro-8-fluoro-7-(3-hydroxynaphthalen-1-yl)-4-(4-propionylpiperazin-1-yl)quinazolin-2-yl)amino)-N-(2-((2-(2,6-dioxopiperidin-3-yl)-1,3-dioxoisoindolin-5-yl)oxy)ethyl)-N-methylpropanamide] | – | – | – | – | C (C ≤ 35) | C (C ≤ 35) | C (C ≤ 35) | ≤ 35%
3 | C=CC(=O)N1CCN(c2nc(NCCC(=O)N(C)CCOCCOCCOc3cc(-c4scnc4C)ccc3CNC(=O)[C@@H]3C[C@@H](O)CN3C(=O)[C@H](c3cc(C)no3)C(C)C)nc3c(F)c(-c4cc(O)cc5ccccc45)c(Cl)cc23)CC1 [compound 342, (2S,4R)-N-(2-(2-(2-(2-(3-((4-(4-acryloylpiperazin-1-yl)-6-chloro-8-fluoro-7-(3-hydroxynaphthalen-1-yl)quinazolin-2-yl)amino)-N-methylpropanamido)ethoxy)ethoxy)ethoxy)-4-(4-methylthiazol-5-yl)benzyl)-4-hydroxy-1-((S)-3-methyl-2-(3-methylisoxazol-5-yl)butanoyl)pyrrolidine-2-carboxamide] | C (Percent Degradation: C ≤ 35) | C (Percent Degradation: C ≤ 35) | C (Percent Degradation: C ≤ 35) | ≤ 35% | – | – | – | –
4 | C=CC(=O)N1CCN(c2nc(NCCC(=O)N(C)CCOCCOCCOc3cc(-c4scnc4C)ccc3CNC(=O)[C@@H]3C[C@@H](O)CN3C(=O)[C@@H](c3cc(C)no3)C(C)C)nc3c(F)c(-c4cc(O)cc5ccccc45)c(Cl)cc23)CC1 [compound 341, (2S,4R)-N-(2-(2-(2-(2-(3-((4-(4-acryloylpiperazin-1-yl)-6-chloro-8-fluoro-7-(3-hydroxynaphthalen-1-yl)quinazolin-2-yl)amino)-N-methylpropanamido)ethoxy)ethoxy)ethoxy)-4-(4-methylthiazol-5-yl)benzyl)-4-hydroxy-1-((R)-3-methyl-2-(3-methylisoxazol-5-yl)butanoyl)pyrrolidine-2-carboxamide] | C (Percent Degradation: C ≤ 35) | C (Percent Degradation: C ≤ 35) | C (Percent Degradation: C ≤ 35) | ≤ 35% | – | – | – | –
5 | C=CC(=O)N1CCN(c2nc(NCCC(=O)N(C)CCOCCOCCOCCOc3ccc(-c4csc([C@@H]5CCCN5C(=O)[C@@H](NC(=O)[C@H](C)NC)C5CCCCC5)n4)c4ccccc34)nc3c(F)c(-c4cc(O)cc5ccccc45)c(Cl)cc23)CC1 [compound 273, 3-((4-(4-acryloylpiperazin-1-yl)-6-chloro-8-fluoro-7-(3-hydroxynaphthalen-1-yl)quinazolin-2-yl)amino)-N-(2-(2-(2-(2-((4-(2-((S)-1-((S)-2-cyclohexyl-2-((S)-2-(methylamino)propan-amido)acetyl)pyrrolidin-2-yl)thiazol-4-yl)naphthalen-1-yl)oxy)ethoxy)ethoxy)eth-oxy)ethyl)-N-methylpropanamide] | C (Percent Degradation: C ≤ 35) | C (Percent Degradation: C ≤ 35) | C (Percent Degradation: C ≤ 35) | ≤ 35% | – | – | – | –
6 | C=CC(=O)N1CCN(c2nc(NCCC(=O)N(C)CCOCCOCCOCCOCC(=O)N[C@H](C(=O)N3C[C@H](O)C[C@H]3C(=O)N[C@@H](C)c3ccc(-c4scnc4C)cc3)C(C)(C)C)nc3c(F)c(-c4cc(O)cc5ccccc45)c(Cl)cc23)CC1 (racemic) [compound 195, (2RS,4SR)-1-((RS)-21-((4-(4-acryloylpiperazin-1-yl)-6-chloro-8-fluoro-7-((RS)-3-hydroxynaphthalen-1-yl)quinazolin-2-yl)amino)-2-(tert-butyl)-18-methyl-4,19-dioxo-6,9,12,15-tetraoxa-3,18-diazahenicosanoyl)-4-hydroxy-N-((RS)-1-(4-(4-methylthiazol-5-yl)phenyl)ethyl)pyrrolidine-2-carboxamide] | – | – | C (Percent Degradation: C ≤ 35) | – | – | – | – | –
7 | CCC(=O)N1CCN(c2nc(NCCC(=O)N(C)CCOCCOc3ccc4c(c3)CN(C3CCC(=O)NC3=O)C4=O)nc3c(F)c(-c4cc(O)cc5ccccc45)c(Cl)cc23)CC1 (centres unmarked) [compound 51, 3-((6-chloro-8-fluoro-7-(3-hydroxynaphthalen-1-yl)-4-(4-propionylpiperazin-1-yl)quinazolin-2-yl)amino)-N-(2-(2-((2-(2,6-dioxopiperidin-3-yl)-1-oxoisoindolin-5-yl)oxy)ethoxy)ethyl)-N-methylpropanamide] | – | – | – | – | C (C ≤ 35) | C (C ≤ 35) | C (C ≤ 35) | ≤ 35%
8 | CN(CCOCCOCCOCCNc1cccc2c1C(=O)N(C1CCC(=O)NC1=O)C2=O)C(=O)CCNc1nc(N2CCN(C(N)=O)CC2)c2cc(Cl)c(-c3c(O)cccc3F)c(F)c2n1 [compound 146, 4-((7S)-6-chloro-2-((1-((2-(2,6-dioxopiperidin-3-yl)-1,3-dioxoisoindolin-4-yl)amino)-12-methyl-13-oxo-3,6,9-trioxa-12-azapentadecan-15-yl)amino)-8-fluoro-7-(2-fluoro-6-hydroxyphenyl)quinazolin-4-yl)piperazine-1-carboxamide] | C (Percent Degradation: C ≤ 35) | C (Percent Degradation: C ≤ 35) | C (Percent Degradation: C ≤ 35) | ≤ 35% | – | – | – | –
9 | C=CC(=O)N1CCN(c2nc(NCCC(=O)N(C)CCOCCOCCOCCNC(=O)c3ccc(NC(=O)[C@@H]4N[C@@H](CC(C)(C)C)[C@](C#N)(c5ccc(Cl)cc5F)[C@H]4c4cccc(Cl)c4F)c(OC)c3)nc3c(F)c(-c4c(O)cccc4F)c(Cl)cc23)CC1 (atropisomer, axis not shown) [compound 311, (2R,3S,4R,5S)-N-(4-((15-((4-(4-acryloylpiperazin-1-yl)-6-chloro-8-fluoro-7-((S)-2-fluoro-6-hydroxyphenyl)quinazolin-2-yl)amino)-12-methyl-13-oxo-3,6,9-trioxa-12-azapentadecyl)carbamoyl)-2-methoxyphenyl)-3-(3-chloro-2-fluorophenyl)-4-(4-chloro-2-fluorophenyl)-4-cyano-5-neopentylpyrrolidine-2-carboxamide] | C (Percent Degradation: C ≤ 35) | C (Percent Degradation: C ≤ 35) | C (Percent Degradation: C ≤ 35) | ≤ 35% | – | – | – | –
10 | Cc1ncsc1-c1ccc([C@H](C)NC(=O)[C@@H]2C[C@@H](O)CN2C(=O)[C@@H](NC(=O)COCCOCCOCCOCC/C=C/C(=O)N2CCN(c3ncnc4c(F)c(-c5cc(O)cc6ccccc56)c(Cl)cc34)CC2)C(C)(C)C)cc1 [compound 375, (2S,4R)-1-((2S,E)-2-(tert-butyl)-20-(4-(6-chloro-8-fluoro-7-(3-hydroxynaphthalen-1-yl)quinazolin-4-yl)piperazin-1-yl)-4,20-dioxo-6,9,12,15-tetraoxa-3-azaicos-18-enoyl)-4-hydroxy-N-((S)-1-(4-(4-methylthiazol-5-yl)phenyl)ethyl)pyrrolidine-2-carboxamide] | C (Percent Degradation: C ≤ 35) | C (Percent Degradation: C ≤ 35) | C (Percent Degradation: C ≤ 35) | ≤ 35% | – | – | – | –
11 | CCC(=O)N1CCN(c2nc(NCCC(=O)N(C)CCOCCOCCOCCOCCOc3ccc4c(c3)C(=O)N(C3CCC(=O)NC3=O)C4=O)nc3c(F)c(-c4cc(O)cc5ccccc45)c(Cl)cc23)CC1 (centres unmarked) [compound 50, 3-((6-chloro-8-fluoro-7-(3-hydroxynaphthalen-1-yl)-4-(4-propionylpiperazin-1-yl)quinazolin-2-yl)amino)-N-(14-((2-(2,6-dioxopiperidin-3-yl)-1,3-dioxoisoindolin-5-yl)oxy)-3,6,9,12-tetraoxatetradecyl)-N-methylpropanamide] | – | – | – | – | C (C ≤ 35) | C (C ≤ 35) | C (C ≤ 35) | ≤ 35%
